Source: EP0979098B1, “METHOD OF TREATING HYPERPROLACTINEMIA AND PROLACTINOMAS” (Cedars-Sinai Medical Center, priority 1997, dated 1998)
Positions of bridges follow the written chain, without caps; N, C: chain ends. Non-standard residues stand in square brackets, D forms with d. Residues, ends and D or L forms follow the SMILES beside them.

Test system: Cells derived from six prolactin-secreting pituitary adenomas
Test: Prolactin secretion from cultured prolactinoma cells (immunoradiometric assay of PRL in medium)
Type: cell-based, human
Settings: for effect on prolactin release (in words): adenomatous cell cultures of tumor 1, 3 hours; for response of prolactin secretion (in words): cells from the four large tumors (tumors 1, 2, 3 and 4); for suppressed prolactin release / effect on prolactin production (in words): tumor 4 cell cultures; for suppressed prolactin release: p<0.05

In the case of `CC[C@@H]1NC(=O)[C@H](CCCCN)NC(=O)[C@@H](Cc2c[nH]c3ccccc23)NC(=O)[C@H](Cc2ccc(O)cc2)NC(=O)[C@@H](NC(=O)[C@H](N)Cc2ccccc2)CSSC[C@@H](C(=O)N[C@H](C(N)=O)[C@@H](C)O)NC1=O` [BIM-23023], the “effect on prolactin release (in words)” value is reported as “did not affect prolactin release”.
With `C[C@@H](O)[C@H](NC(=O)[C@H](Cc1ccccc1)NC(=O)[C@@H](NC(=O)[C@H](CCCCN)NC(=O)[C@@H](Cc1c[nH]c2ccccc12)NC(=O)[C@H](Cc1ccccc1)NC(=O)[C@H](Cc1ccccc1)NC(=O)[C@H](N)Cc1ccccc1)[C@@H](C)O)C(N)=O` [BIM-23052, H-D-Phe-Phe-Phe-D-Trp-Lys-Thr-Phe-Thr-NH2] (H-[dF]FF[dW]KTFT-NH2) the “response of prolactin secretion (in words)” value (“response” below) was “suppression of prolactin secretion” and the suppressed prolactin release was “more than 30%”.
In the case of `CC[C@@H]1NC(=O)[C@H](CCCCN)NC(=O)[C@@H](Cc2c[nH]c3ccccc23)NC(=O)[C@H](Cc2ccc(O)cc2)NC(=O)[C@@H](NC(=O)[C@@H](Cc2ccccc2)NC(=O)CN2CCN(CCO)CC2)CSSC[C@@H](C(=O)N[C@H](C(N)=O)[C@@H](C)O)NC1=O` [BIM-23190], the “effect on prolactin release (in words)” value is reported as “did not affect prolactin release”, the “response” value is reported as “failed to respond” and the “effect on prolactin production (in words)” value is reported as “modestly stimulated prolactin production”.
In the case of `CC[C@@H]1NC(=O)[C@H](CCCCN)NC(=O)[C@@H](Cc2c[nH]c3ccccc23)NC(=O)[C@H](Cc2ccc(O)cc2)NC(=O)[C@@H](NC(=O)[C@@H](Cc2ccccc2)NS(=O)(=O)CCN2CCN(CCO)CC2)CSSC[C@@H](C(=O)N[C@H](C(N)=O)[C@@H](C)O)NC1=O` [BIM-23197], the “effect on prolactin release (in words)” value is reported as “did not affect prolactin release”, the “response” value is reported as “failed to respond” and the “effect on prolactin production (in words)” value is reported as “modestly stimulated prolactin production”.
In the case of `C[C@@H](O)[C@@H]1NC(=O)[C@H](CCCCN)NC(=O)[C@@H](Cc2c[nH]c3ccccc23)NC(=O)[C@H](Cc2ccccc2)NC(=O)[C@H](Cc2ccccc2)NC(=O)[C@@H](N)CSSC[C@@H](C(N)=O)NC(=O)[C@H](Cc2ccccc2)NC1=O` [BIM-23268] (H-CFF[dW]KTFC-NH2; disulfide 1-8), the “response” value is reported as “suppression of prolactin secretion”, the “Prolactin release inhibited versus controls” value (tumor 2 cell cultures, 10 nM, p < 0.0005) is reported as 38% and the suppressed prolactin (tumor 3 cell cultures, 10 nM and 100 nM, dose dependent, p < 0.05) is reported as “up to 29%”. The suppressed prolactin release was “more than 30%”.
For `CC(C)[C@@H]1NC(=O)[C@H](CCCCN)NC(=O)[C@@H](Cc2c[nH]c3ccccc23)NC(=O)[C@H](Cc2ccc(O)cc2)NC(=O)[C@@H](NC(=O)[C@H](N)Cc2ccc3ccccc3c2)CSSC[C@@H](C(=O)N[C@H](C(N)=O)[C@@H](C)O)NC1=O` [Lanreotide], the “effect on prolactin release (in words)” value was “did not affect prolactin release” and the “response” value was “failed to respond”.
In the case of `C[C@@H](O)[C@@H]1NC(=O)[C@H](CCCCN)NC(=O)[C@@H](Cc2c[nH]c3ccccc23)NC(=O)[C@H](Cc2ccccc2)NC(=O)[C@@H](NC(=O)[C@H](N)Cc2ccccc2)CSSC[C@@H](C(=O)N[C@H](CO)[C@@H](C)O)NC1=O` [Octreotide], the “response” value is reported as “failed to respond”.
